Legend:
[1] = target: T1, diadenylate cyclase of Streptococcus suis (ssDacA) (Streptococcus suis, UniProt A0A0H3N0L3); experiment: HPLC quantification of product formed by purified enzyme; assay type: biochemical
T1 construct: gene dacA; C-terminal catalytic domain (residues 99 to 283), His-tagged, from S. suis SC19

[2] = target: T1, diadenylate cyclase of Streptococcus suis (ssDacA); experiment: Kinase-Glo ATP consumption assay with purified enzyme ([…] ssDacA); confirmed by HPLC of c-di-AMP; assay type: biochemical

T1 sequence (A0A0H3N0L3 entry or part of it): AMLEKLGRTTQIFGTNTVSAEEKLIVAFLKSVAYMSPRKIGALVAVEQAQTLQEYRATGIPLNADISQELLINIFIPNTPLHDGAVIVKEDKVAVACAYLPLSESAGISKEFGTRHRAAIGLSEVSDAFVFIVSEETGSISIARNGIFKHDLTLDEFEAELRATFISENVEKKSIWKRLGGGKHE

Row | IC50 [2] [µM] | Structure (SMILES) | HPLC quantification of product formed by purified enzyme [1]
1 |  | Nc1ncnc2c1ncn2[C@@H]1O[C@@H]2COP(=O)(O)O[C@H]3[C@@H](O)[C@H](n4cnc5c(N)ncnc54)O[C@@H]3COP(=O)(O)O[C@H]2[C@H]1O [c-di-AMP] | the catalytic product c-di-AMP in the reaction was detected in the presence and absence of IPA-3 in vitro
2 | 38.2 | Oc1ccc2ccccc2c1SSc1c(O)ccc2ccccc12 [IPA-3, 2,2′-dihydroxy-1,1′-dinapthyldisulfide] | 
